Target: T1, mouse TRPM7 (Mus musculus, UniProt Q923J1)
T1 construct: full-length channel-kinase, untagged, in bicistronic pIRES2-EGFP, transiently expressed in HEK293T cells; homotetramer
Assay: whole-cell patch clamp, current at +[…] mV
Format: cell-based
Conditions: external NS8593, inhibitor; Mg2+-free intracellular solution; pH 7.2

T1 sequence (Q923J1 whole entry): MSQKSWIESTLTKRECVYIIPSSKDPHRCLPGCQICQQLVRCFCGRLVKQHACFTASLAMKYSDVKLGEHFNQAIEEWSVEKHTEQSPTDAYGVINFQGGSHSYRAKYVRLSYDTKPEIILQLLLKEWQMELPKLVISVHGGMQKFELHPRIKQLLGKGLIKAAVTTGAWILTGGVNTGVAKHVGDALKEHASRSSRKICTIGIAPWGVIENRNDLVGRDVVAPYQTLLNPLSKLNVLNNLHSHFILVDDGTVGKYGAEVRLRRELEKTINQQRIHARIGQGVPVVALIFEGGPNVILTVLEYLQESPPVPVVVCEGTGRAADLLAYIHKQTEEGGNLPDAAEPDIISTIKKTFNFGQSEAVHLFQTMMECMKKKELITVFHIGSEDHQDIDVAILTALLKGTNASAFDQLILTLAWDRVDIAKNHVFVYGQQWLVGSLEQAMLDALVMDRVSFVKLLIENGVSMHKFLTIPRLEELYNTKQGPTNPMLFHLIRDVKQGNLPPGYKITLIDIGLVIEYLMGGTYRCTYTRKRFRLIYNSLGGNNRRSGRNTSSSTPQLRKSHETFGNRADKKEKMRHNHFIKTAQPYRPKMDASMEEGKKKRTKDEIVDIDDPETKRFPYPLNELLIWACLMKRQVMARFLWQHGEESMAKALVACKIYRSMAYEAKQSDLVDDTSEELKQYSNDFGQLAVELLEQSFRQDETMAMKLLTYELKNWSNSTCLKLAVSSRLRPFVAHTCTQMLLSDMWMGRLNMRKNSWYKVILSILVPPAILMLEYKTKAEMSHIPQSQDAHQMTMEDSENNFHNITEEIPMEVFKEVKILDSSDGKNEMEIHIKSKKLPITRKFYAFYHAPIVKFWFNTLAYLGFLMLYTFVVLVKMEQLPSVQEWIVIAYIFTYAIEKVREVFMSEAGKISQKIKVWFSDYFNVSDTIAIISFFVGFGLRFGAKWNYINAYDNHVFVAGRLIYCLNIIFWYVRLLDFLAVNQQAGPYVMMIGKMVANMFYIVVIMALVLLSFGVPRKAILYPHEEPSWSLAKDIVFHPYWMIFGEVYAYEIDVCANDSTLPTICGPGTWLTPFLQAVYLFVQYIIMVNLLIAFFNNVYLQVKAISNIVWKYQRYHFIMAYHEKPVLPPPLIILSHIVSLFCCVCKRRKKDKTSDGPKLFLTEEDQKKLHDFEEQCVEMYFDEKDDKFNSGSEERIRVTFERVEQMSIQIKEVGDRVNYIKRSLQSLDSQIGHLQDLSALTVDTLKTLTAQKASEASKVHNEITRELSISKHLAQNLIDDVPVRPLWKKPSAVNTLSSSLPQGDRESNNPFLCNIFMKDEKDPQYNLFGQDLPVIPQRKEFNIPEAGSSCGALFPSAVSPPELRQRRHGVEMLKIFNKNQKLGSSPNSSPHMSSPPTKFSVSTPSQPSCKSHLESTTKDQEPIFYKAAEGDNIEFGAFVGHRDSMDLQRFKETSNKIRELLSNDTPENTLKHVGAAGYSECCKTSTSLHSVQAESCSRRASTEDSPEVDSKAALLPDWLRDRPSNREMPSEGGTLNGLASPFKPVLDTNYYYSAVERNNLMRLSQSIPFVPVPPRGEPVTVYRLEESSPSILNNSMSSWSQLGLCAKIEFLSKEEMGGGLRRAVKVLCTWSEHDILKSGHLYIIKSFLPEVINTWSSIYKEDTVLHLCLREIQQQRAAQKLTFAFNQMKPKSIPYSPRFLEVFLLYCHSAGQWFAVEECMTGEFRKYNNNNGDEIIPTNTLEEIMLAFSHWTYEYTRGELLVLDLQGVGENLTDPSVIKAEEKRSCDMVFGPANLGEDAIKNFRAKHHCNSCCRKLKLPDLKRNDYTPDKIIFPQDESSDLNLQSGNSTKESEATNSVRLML

c1ccc2c(c1)CCC[C@H]2Nc1nc2ccccc2[nH]1 [NS8593]
current inhibition at 10 μM: NS8593 caused a rapid inhibition of WT and N1097Q currents

Reference: PMC8989868, “Structural mechanism of TRPM7 channel regulation by intracellular magnesium” (Cellular and Molecular Life Sciences: CMLS, 2022)
